Species on record: Rattus norvegicus
Assay: DrugMatrix - Regimen: Daily Repeat
Format: toxicity, organism-based, Sprague-Dawley
Set-up: regimen Daily Repeat, gender Male, age 6-8 weeks
Details: in vivo, po, route oral GAVAGE, […]; for ABSOLUTE BASOPHIL / ABSOLUTE EOSINOPHIL / ABSOLUTE LYMPHOCYTE / ABSOLUTE MONOCYTE / ABSOLUTE SEGMENTED NEUTROPHIL / BASOPHIL / EOSINOPHIL / ERYTHROCYTE COUNT / HEMATOCRIT / HEMOGLOBIN / LEUKOCYTE COUNT / LYMPHOCYTE / MEAN CORPUSCULAR HEMOGLOBIN / MEAN CORPUSCULAR HEMOGLOBIN CONCENTRATION / MEAN CORPUSCULAR VOLUME / MONOCYTE / NEUTROPHIL / NUCLEATED RED BLOOD CELLS / PLATELET COUNT: tissue Blood; for ALANINE AMINOTRANSFERASE / ALBUMIN / ALKALINE PHOSPHATASE / ASPARTATE AMINOTRANSFERASE / BLOOD UREA NITROGEN / CARBON DIOXIDE / CHLORIDE / CHOLESTEROL / CREATINE PHOSPHOKINASE / CREATININE / GLUCOSE / LACTATE DEHYDROGENASE / LIPASE / PHOSPHORUS / POTASSIUM / SODIUM / TOTAL BILIRUBIN / TOTAL PROTEIN / URIC ACID: tissue Plasma
[1] = 0 mg/kg, 72 h, dose level Control, time 3 day
[2] = 0 mg/kg, 120 h, dose level Control, time 5 day
[3] = 67 mg/kg, 72 h, dose level Low, time 3 day
[4] = 67 mg/kg, 120 h, dose level Low, time 5 day

Cc1cccc(C)c1NC(=O)C(C)N (stereo unspecified) [TOCAINIDE]
ABSOLUTE BASOPHIL [1]: 0 CELLS/uL | ABSOLUTE EOSINOPHIL [1]: 41.83 CELLS/uL | ABSOLUTE LYMPHOCYTE [1]: 8545.5 CELLS/uL | ABSOLUTE MONOCYTE [1]: 240 CELLS/uL | ABSOLUTE SEGMENTED NEUTROPHIL [1]: 906 CELLS/uL | BASOPHIL [1]: 0% | EOSINOPHIL [1]: 0.33% | ERYTHROCYTE COUNT [1]: 5.6 x10E6/uL | HEMATOCRIT [1]: 35.4% | HEMOGLOBIN [1]: 13.42 G/DL | LEUKOCYTE COUNT [1]: 9.73 x10E3/uL | LYMPHOCYTE [1]: 87.83% | MEAN CORPUSCULAR HEMOGLOBIN [1]: 23.98 pg | MEAN CORPUSCULAR HEMOGLOBIN CONCENTRATION [1]: 37.92 G/DL | MEAN CORPUSCULAR VOLUME [1]: 63.3 fL | MONOCYTE [1]: 2.5% | NEUTROPHIL [1]: 9.33% | NUCLEATED RED BLOOD CELLS [1]: 0 /100WBC | PLATELET COUNT [1]: 1032 x10E3/uL | ALANINE AMINOTRANSFERASE [1]: 72.83 u/L | ALBUMIN [1]: 4 G/DL | ALKALINE PHOSPHATASE [1]: 322.83 u/L | ASPARTATE AMINOTRANSFERASE [1]: 102.67 u/L | BLOOD UREA NITROGEN [1]: 12 mg/dL | CARBON DIOXIDE [1]: 34.33 mmol/L | CHLORIDE [1]: 97.67 MEQ/L | CHOLESTEROL [1]: 82.5 mg/dL | CREATINE PHOSPHOKINASE [1]: 410.33 u/L | CREATININE [1]: 0.18 mg/dL | GLUCOSE [1]: 164.5 mg/dL | LACTATE DEHYDROGENASE [1]: 119.5 u/L | LIPASE [1]: 11.83 u/L | PHOSPHORUS [1]: 9.52 mg/dL | POTASSIUM [1]: 5.56 MEQ/L | SODIUM [1]: 142.48 MEQ/L | TOTAL BILIRUBIN [1]: 0.18 mg/dL | TOTAL PROTEIN [1]: 5.77 G/DL | URIC ACID [1]: 0.48 mg/dL | ABSOLUTE BASOPHIL [2]: 0 CELLS/uL | ABSOLUTE EOSINOPHIL [2]: 0 CELLS/uL | ABSOLUTE LYMPHOCYTE [2]: 9065 CELLS/uL | ABSOLUTE MONOCYTE [2]: 341.33 CELLS/uL | ABSOLUTE SEGMENTED NEUTROPHIL [2]: 527 CELLS/uL | BASOPHIL [2]: 0% | EOSINOPHIL [2]: 0% | ERYTHROCYTE COUNT [2]: 5.25 x10E6/uL | HEMATOCRIT [2]: 34.08% | HEMOGLOBIN [2]: 13.5 G/DL | LEUKOCYTE COUNT [2]: 9.93 x10E3/uL | LYMPHOCYTE [2]: 91.17% | MEAN CORPUSCULAR HEMOGLOBIN [2]: 25.7 pg | MEAN CORPUSCULAR HEMOGLOBIN CONCENTRATION [2]: 39.62 G/DL | MEAN CORPUSCULAR VOLUME [2]: 64.93 fL | MONOCYTE [2]: 3.33% | NEUTROPHIL [2]: 5.5% | NUCLEATED RED BLOOD CELLS [2]: 0 /100WBC | PLATELET COUNT [2]: 1077.5 x10E3/uL | ALANINE AMINOTRANSFERASE [2]: 57.83 u/L | ALBUMIN [2]: 4.07 G/DL | ALKALINE PHOSPHATASE [2]: 319.17 u/L | ASPARTATE AMINOTRANSFERASE [2]: 83.33 u/L | BLOOD UREA NITROGEN [2]: 13.67 mg/dL | CARBON DIOXIDE [2]: 30.83 mmol/L | CHLORIDE [2]: 98.33 MEQ/L | CHOLESTEROL [2]: 64.83 mg/dL | CREATINE PHOSPHOKINASE [2]: 263.67 u/L | CREATININE [2]: 0.2 mg/dL | GLUCOSE [2]: 182.83 mg/dL | LACTATE DEHYDROGENASE [2]: 124 u/L | LIPASE [2]: 10.5 u/L | PHOSPHORUS [2]: 10 mg/dL | POTASSIUM [2]: 5.78 MEQ/L | SODIUM [2]: 142.48 MEQ/L | TOTAL BILIRUBIN [2]: 0.2 mg/dL | TOTAL PROTEIN [2]: 6 G/DL | URIC ACID [2]: 0.7 mg/dL | ABSOLUTE BASOPHIL [3]: 0 CELLS/uL | ABSOLUTE EOSINOPHIL [3]: 83.33 CELLS/uL | ABSOLUTE LYMPHOCYTE [3]: 10800 CELLS/uL | ABSOLUTE MONOCYTE [3]: 251.33 CELLS/uL | ABSOLUTE SEGMENTED NEUTROPHIL [3]: 1265.33 CELLS/uL | BASOPHIL [3]: 0% | EOSINOPHIL [3]: 0.67% | ERYTHROCYTE COUNT [3]: 5.15 x10E6/uL | HEMATOCRIT [3]: 32.47% | HEMOGLOBIN [3]: 12.83 G/DL | LEUKOCYTE COUNT [3]: 12.4 x10E3/uL | LYMPHOCYTE [3]: 86.67% | MEAN CORPUSCULAR HEMOGLOBIN [3]: 24.97 pg | MEAN CORPUSCULAR HEMOGLOBIN CONCENTRATION [3]: 39.5 G/DL | MEAN CORPUSCULAR VOLUME [3]: 63.07 fL | MONOCYTE [3]: 2.33% | NEUTROPHIL [3]: 10.33% | NUCLEATED RED BLOOD CELLS [3]: 0 /100WBC | PLATELET COUNT [3]: 980 x10E3/uL | ALANINE AMINOTRANSFERASE [3]: 64 u/L | ALBUMIN [3]: 3.83 G/DL | ALKALINE PHOSPHATASE [3]: 379.67 u/L | ASPARTATE AMINOTRANSFERASE [3]: 79.67 u/L | BLOOD UREA NITROGEN [3]: 12.33 mg/dL | CARBON DIOXIDE [3]: 26 mmol/L | CHLORIDE [3]: 101 MEQ/L | CHOLESTEROL [3]: 69.33 mg/dL | CREATINE PHOSPHOKINASE [3]: 212.67 u/L | CREATININE [3]: 0.29 mg/dL | GLUCOSE [3]: 163 mg/dL | LACTATE DEHYDROGENASE [3]: 145.67 u/L | LIPASE [3]: 16 u/L | PHOSPHORUS [3]: 10.33 mg/dL | POTASSIUM [3]: 5.62 MEQ/L | SODIUM [3]: 142.37 MEQ/L | TOTAL BILIRUBIN [3]: 0.2 mg/dL | TOTAL PROTEIN [3]: 5.4 G/DL | URIC ACID [3]: 0.83 mg/dL | ABSOLUTE BASOPHIL [4]: 0 CELLS/uL | ABSOLUTE EOSINOPHIL [4]: 0 CELLS/uL | ABSOLUTE LYMPHOCYTE [4]: 9456 CELLS/uL | ABSOLUTE MONOCYTE [4]: 276.33 CELLS/uL | ABSOLUTE SEGMENTED NEUTROPHIL [4]: 701 CELLS/uL | BASOPHIL [4]: 0% | EOSINOPHIL [4]: 0% | ERYTHROCYTE COUNT [4]: 5.11 x10E6/uL | HEMATOCRIT [4]: 34.43% | HEMOGLOBIN [4]: 13.2 G/DL | LEUKOCYTE COUNT [4]: 10.43 x10E3/uL | LYMPHOCYTE [4]: 90.67% | MEAN CORPUSCULAR HEMOGLOBIN [4]: 25.9 pg | MEAN CORPUSCULAR HEMOGLOBIN CONCENTRATION [4]: 38.37 G/DL | MEAN CORPUSCULAR VOLUME [4]: 67.47 fL | MONOCYTE [4]: 2.67% | NEUTROPHIL [4]: 6.67% | NUCLEATED RED BLOOD CELLS [4]: 0 /100WBC | PLATELET COUNT [4]: 1124 x10E3/uL | ALANINE AMINOTRANSFERASE [4]: 58.33 u/L | ALBUMIN [4]: 4.1 G/DL | ALKALINE PHOSPHATASE [4]: 361 u/L | ASPARTATE AMINOTRANSFERASE [4]: 79.67 u/L | BLOOD UREA NITROGEN [4]: 10.67 mg/dL | CARBON DIOXIDE [4]: 30.67 mmol/L | CHLORIDE [4]: 95 MEQ/L | CHOLESTEROL [4]: 65.67 mg/dL | CREATININE [4]: 0.16 mg/dL | GLUCOSE [4]: 174.33 mg/dL | LACTATE DEHYDROGENASE [4]: 154.67 u/L | LIPASE [4]: 9.67 u/L | PHOSPHORUS [4]: 10.87 mg/dL | POTASSIUM [4]: 5.33 MEQ/L | SODIUM [4]: 137.97 MEQ/L | TOTAL BILIRUBIN [4]: 0.17 mg/dL | TOTAL PROTEIN [4]: 5.97 G/DL | URIC ACID [4]: 0.7 mg/dL
